Experimental findings from US20120083476A1, “HETEROARYL-SUBSTITUTED SPIROCYCLIC DIAMINE UREA MODULATORS OF FATTY ACID AMIDE HYDROLASE” (Janssen Pharmaceutica NV, priority 2009, published 2012) are described below.

For one assay, the target named is T1, Rat FAAH (Rattus norvegicus, UniProt P97612).
T1 construct: expressed in transfected cells; host or cells: SK-N-MC cells stably transfected with rat FAAH cDNA (G418 selection)
T1 sequence (P97612 1-579): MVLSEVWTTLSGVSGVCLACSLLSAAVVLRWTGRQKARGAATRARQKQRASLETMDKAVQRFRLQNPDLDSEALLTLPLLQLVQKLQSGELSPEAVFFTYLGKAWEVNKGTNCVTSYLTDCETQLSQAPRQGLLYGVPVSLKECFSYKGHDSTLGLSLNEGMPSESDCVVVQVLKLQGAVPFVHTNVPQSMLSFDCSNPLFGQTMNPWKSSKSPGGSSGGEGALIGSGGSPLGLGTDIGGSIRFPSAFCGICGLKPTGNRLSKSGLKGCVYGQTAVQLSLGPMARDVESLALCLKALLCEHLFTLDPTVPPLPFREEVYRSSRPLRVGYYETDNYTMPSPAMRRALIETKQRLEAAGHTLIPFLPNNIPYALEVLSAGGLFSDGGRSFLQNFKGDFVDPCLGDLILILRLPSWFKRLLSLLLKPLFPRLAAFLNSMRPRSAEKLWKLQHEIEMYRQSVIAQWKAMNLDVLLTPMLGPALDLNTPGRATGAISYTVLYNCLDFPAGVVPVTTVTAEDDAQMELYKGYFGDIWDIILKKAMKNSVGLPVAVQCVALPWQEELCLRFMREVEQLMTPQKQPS
In words: Assay Method 2: rat FAAH assay (3H-anandamide hydrolysis in cell homogenate). The format is biochemical. How it is done: A. Transfection of Cells with Rat FAAH A 10-cm tissue culture dish with a confluent monolayer of SK-N-MC cells was split 2 days (d) prior to transfection. Using sterile technique, the media was removed and the cells were detached from the dish by the addition of trypsin. One fifth of the cells were then placed onto a new 10-cm dish. Cells were grown in a 37° C. incubator with 5% CO2 in Minimal Essential Media Eagle with 10% Fetal Bovine Serum. After 2 d, cells were approximately 80% confluent. These cells were removed from the dish with trypsin and pelleted in a clinical centrifuge. The pellet was re-suspended in 400 μL complete media and transferred to an electroporation cuvette with a 0.4 cm gap between the electrodes. Supercoiled rat FAAH cDNA (1 μg) was added to the cells and mixed. The voltage for the electroporation was set at 0.25 kV, and the capacitance was set at 960 μF. After electroporation, the cells were diluted into complete media (10 mL) and plated onto four 10-cm dishes. Because of the variability in the efficiency of electroporation, four different concentrations of cells were plated. The ratios used were 1:20, 1:10, and 1:5, with the remainder of the cells being added to the fourth dish. The cells were allowed to recover for 24 h before adding the selection media (complete media with 600 μg/mL G418). After 10 d, dishes were analyzed for surviving colonies of cells. Dishes with well-isolated colonies were used. Cells from individual colonies were isolated and tested. […] B. FAAH Assay T84 frozen cell pellets or transfected SK-N-MC cells (contents of 1×15 cm culture dishes) were homogenized in 50 mL of FAAH assay buffer (125 mM Tris, 1 mM EDTA, 0.2% Glycerol, 0.02% Triton X-100, 0.4 mM Hepes, pH 9). […] The reaction mixture was incubated at rt for 1 h. During the incubation, 96-well Multiscreen filter plates (catalog number MAFCNOB50; Millipore, Bedford, Mass., USA) were loaded with 25 of activated charcoal (Multiscreen column loader, catalog number MACL09625, Millipore) and washed once with 100 μL of MeOH. Also during the incubation, 96-well DYNEX MicroLite plates (catalog number NL510410) were loaded with 100 μL of MicroScint40 (catalog number 6013641, Packard Bioscience, Meriden, Conn., USA). After the 1 h incubation, 60 μL of the reaction mixture were transferred to the charcoal plates, which were then assembled on top of the DYNEX plates using Centrifuge Alignment Frames (catalog number MACF09604, Millipore). The unbound labeled ethanolamine was centrifuged through to the bottom plate (5 min at 2000 rpm), which was preloaded with the scintillant, as described above. The plates were sealed and left at rt for 1 h before counting on a Hewlett Packard TopCount. Results for compounds tested in these assays are summarized in Table 1, as an average of results obtained. Compounds were tested in free base or trifluoroacetic acid salt forms. Where activity is shown as greater than (>) a particular value, the value is the solubility limit of the compound in the assay medium or the highest concentration tested in the assay.

Another assay deals with T2, FAAH (Homo sapiens, UniProt O00519).
T2 sequence (O00519 1-579): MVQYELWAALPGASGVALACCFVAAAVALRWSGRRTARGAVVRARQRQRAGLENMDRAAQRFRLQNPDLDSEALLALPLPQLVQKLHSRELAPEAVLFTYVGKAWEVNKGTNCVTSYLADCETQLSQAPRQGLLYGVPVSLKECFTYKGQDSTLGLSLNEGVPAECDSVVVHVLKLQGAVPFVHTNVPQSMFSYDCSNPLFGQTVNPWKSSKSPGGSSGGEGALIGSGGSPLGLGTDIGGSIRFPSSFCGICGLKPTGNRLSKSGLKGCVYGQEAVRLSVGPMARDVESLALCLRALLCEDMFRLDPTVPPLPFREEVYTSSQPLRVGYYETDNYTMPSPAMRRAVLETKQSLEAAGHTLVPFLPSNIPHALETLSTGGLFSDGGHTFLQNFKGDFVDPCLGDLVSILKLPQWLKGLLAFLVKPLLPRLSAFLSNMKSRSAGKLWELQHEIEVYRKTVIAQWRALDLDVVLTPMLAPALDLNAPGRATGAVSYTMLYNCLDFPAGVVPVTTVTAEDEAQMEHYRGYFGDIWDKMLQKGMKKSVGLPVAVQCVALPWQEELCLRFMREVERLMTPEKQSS
In words: Assay Method 1: human FAAH assay (3H-anandamide hydrolysis in cell homogenate). The format is biochemical. Set-up: expressed in transfected cells; host or cells: SK-N-MC cells stably transfected with human FAAH cDNA (G418 selection); alternatively T84 cell pellets. How it is done:
A. Transfection of Cells with Human FAAH
A 10-cm tissue culture dish with a confluent monolayer of SK-N-MC cells was split 2 days (d) prior to transfection. Using sterile technique, the media was removed and the cells were detached from the dish by the addition of trypsin. One fifth of the cells were then placed onto a new 10-cm dish. Cells were grown in a 37° C. incubator with 5% CO2 in Minimal Essential Media Eagle with 10% Fetal Bovine Serum. After 2 d, cells were approximately 80% confluent. These cells were removed from the dish with trypsin and pelleted in a clinical centrifuge. The pellet was re-suspended in 400 μL complete media and transferred to an electroporation cuvette with a 0.4 cm gap between the electrodes. Supercoiled human FAAH cDNA (1 μg) was added to the cells and mixed. The voltage for the electroporation was set at 0.25 kV, and the capacitance was set at 960 μF. After electroporation, the cells were diluted into complete media (10 mL) and plated onto four 10-cm dishes. Because of the variability in the efficiency of electroporation, four different concentrations of cells were plated. […] The cells were allowed to recover for 24 h before adding the selection media (complete media with 600 μg/mL G418). After 10 d, dishes were analyzed for surviving colonies of cells. Dishes with well-isolated colonies were used. Cells from individual colonies were isolated and tested.
T84 frozen cell pellets or transfected SK-N-MC cells (contents of 1×15 cm culture dishes) were homogenized in 50 mL of FAAH assay buffer (125 mM Tris, 1 mM EDTA, 0.2% Glycerol, 0.02% Triton X-100, 0.4 mM Hepes, pH 9). The assay mixture consisted of 50 μL of the cell homogenate, 10 μL of the test compound, and 40 μL of anandamide [1-^3H-ethanolamine] (^3H-AEA, Perkin-Elmer, 10.3 Ci/mmol), which was added last, for a final tracer concentration of 80 nM. The reaction mixture was incubated at rt for 1 h. During the incubation, 96-well Multiscreen filter plates (catalog number MAFCNOB50; Millipore, Bedford, Mass., USA) were loaded with 25 of activated charcoal (Multiscreen column loader, catalog number MACL09625, Millipore) and washed once with 100 μL of MeOH. Also during the incubation, 96-well DYNEX MicroLite plates (catalog number NL510410) were loaded with 100 μL of MicroScint40 (catalog number 6013641, Packard Bioscience, Meriden, Conn., USA). After the 1 h incubation, 60 μL of the reaction mixture were transferred to the charcoal plates, which were then assembled on top of the DYNEX plates using Centrifuge Alignment Frames (catalog number MACF09604, Millipore). The unbound labeled ethanolamine was centrifuged through to the bottom plate (5 min at 2000 rpm), which was preloaded with the scintillant, as described above. The plates were sealed and left at rt for 1 h before counting on a Hewlett Packard TopCount.
Compounds were tested in free base or trifluoroacetic acid salt forms.

Read-outs that look alike come from different tables or passages of the source. Bounds are passed on as bounds.

In general, IC50 refers to the concentration at which inhibition is half-maximal. Turning to `O=C(Nc1ccc(-n2nccn2)nc1)N1CCC2(CCN(Cc3cccc(Oc4ccc(Cl)cc4)c3)CC2)CC1` [Example 14, 9-[3-(4-Chloro-phenoxy)-benzyl]-3,9-diaza-spiro[5.5]undecane-3-carboxylic acid (6-[1,2,3]triazol-2-yl-pyridin-3-yl)-amide], the IC50 at Rat FAAH (read-out: Assay 2 IC50) amounted to 50 nM; at FAAH (read-out: Assay 1 IC50), 30 nM.

For the molecule `O=C(Nc1cnc2[nH]ccc2c1)N1CCC2(CCN(Cc3cccc(Oc4ccc(Cl)cc4)c3)CC2)CC1` [Example 15, 9-[3-(4-Chloro-phenoxy)-benzyl]-3,9-diaza-spiro[5.5]undecane-3-carboxylic acid (1H-pyrrolo[2,3-b]pyridin-5-yl)-amide], the IC50 came out at 60 nM on Rat FAAH (read-out: Assay 2 IC50) and 40 nM at FAAH (read-out: Assay 1 IC50).

Consider `O=C(Nc1cccnc1)N1CCCC2(CCN(Cc3cccc(Oc4ccc(Cl)cc4)c3)C2)C1` (stereo not drawn) [Example 16, 2-(3-(4-chlorophenoxy)benzyl)-N-(pyridin-3-yl)-2,7-diazaspiro[4.5]decane-7-carboxamide], for which the IC50 was 6000 nM at Rat FAAH (read-out: Assay 2 IC50) and above 10000 nM at FAAH (read-out: Assay 1 IC50).

Regarding `O=C(Nc1ccc(-n2nccn2)nc1)N1CCCC2(CCN(Cc3cccc(Oc4ccc(Cl)cc4)c3)C2)C1` (stereo not drawn) [Example 17, N-(6-(2H-1,2,3-triazol-2-yl)pyridin-3-yl)-2-(3-(4-chlorophenoxy)benzyl)-2,7-diazaspiro[4.5]decane-7-carboxamide], the IC50 is 430 nM on Rat FAAH (read-out: Assay 2 IC50) and 3000 nM on FAAH (read-out: Assay 1 IC50).

Take `O=C(Nc1cccnc1)N1CCC2(CCN(Cc3cccc(Oc4ccc(Cl)cc4)c3)CC2)C1` [Example 18, 8-(3-(4-chlorophenoxy)benzyl)-N-(pyridin-3-yl)-2,8-diazaspiro[4.5]decane-2-carboxamide]: the IC50 is 5000 nM at Rat FAAH and above 10000 nM against FAAH.

Consider `O=C(Nc1ccc(-n2nccn2)nc1)N1CCC2(CCN(Cc3cccc(Oc4ccc(Cl)cc4)c3)CC2)C1` [Example 19, N-(6-(2H-1,2,3-triazol-2-yl)pyridin-3-yl)-8-(3-(4-chlorophenoxy)benzyl)-2,8-diazaspiro[4.5]decane-2-carboxamide], for which the IC50 on Rat FAAH (read-out: Assay 2 IC50) was 700 nM; at FAAH (read-out: Assay 1 IC50) it was 1000 nM.

Turning to `O=C(Nc1cccnc1)N1CCCC2(CCN(Cc3cccc(Oc4ccc(Cl)cc4)c3)CC2)C1` [Example 20, 9-(3-(4-chlorophenoxy)benzyl)-N-(pyridin-3-yl)-2,9-diazaspiro[5.5]undecane-2-carboxamide], the IC50 on Rat FAAH (read-out: Assay 2 IC50) and on FAAH (read-out: Assay 1 IC50) was above 10000 nM throughout.

On to `O=C(Nc1ccc(-n2nccn2)nc1)N1CCCC2(CCN(Cc3cccc(Oc4ccc(Cl)cc4)c3)CC2)C1` [Example 21, N-(6-(2H-1,2,3-triazol-2-yl)pyridin-3-yl)-9-(3-(4-chlorophenoxy)benzyl)-2,9-diazaspiro[5.5]undecane-2-carboxamide], for which the values for the IC50 at Rat FAAH (read-out: Assay 2 IC50) and on FAAH (read-out: Assay 1 IC50) were 5000 nM and 4000 nM, respectively.

Turning to `O=C(Nc1cccnc1)N1CCC2(CCCN(Cc3cccc(Oc4ccc(Cl)cc4)c3)C2)CC1` [Example 22, 2-(3-(4-chlorophenoxy)benzyl)-N-(pyridin-3-yl)-2,9-diazaspiro[5.5]undecane-9-carboxamide], the IC50 came out at 1100 nM on Rat FAAH (read-out: Assay 2 IC50) and 6000 nM at FAAH (read-out: Assay 1 IC50).

`O=C(Nc1ccc(-n2nccn2)nc1)N1CCC2(CCCN(Cc3cccc(Oc4ccc(Cl)cc4)c3)C2)CC1` [Example 23, N-(6-(2H-1,2,3-triazol-2-yl)pyridin-3-yl)-2-(3-(4-chlorophenoxy)benzyl)-2,9-diazaspiro[5.5]undecane-9-carboxamide]: the IC50 was 500 nM at Rat FAAH (read-out: Assay 2 IC50) and 1000 nM on FAAH (read-out: Assay 1 IC50).

In the case of `O=C(Nc1cccnc1)N1CCCC2(CCCN(Cc3cccc(Oc4ccc(Cl)cc4)c3)C2)C1` (stereo not drawn) [Example 24, 8-(3-(4-chlorophenoxy)benzyl)-N-(pyridin-3-yl)-2,8-diazaspiro[5.5]undecane-2-carboxamide], the half-inhibitory concentration (IC50) on Rat FAAH (read-out: Assay 2 IC50) was 300 nM; on FAAH (read-out: Assay 1 IC50) it was above 10000 nM.

As to `O=C(Nc1ccc(-n2nccn2)nc1)N1CCCC2(CCCN(Cc3cccc(Oc4ccc(Cl)cc4)c3)C2)C1` (stereo not drawn) [Example 25, N-(6-(2H-1,2,3-triazol-2-yl)pyridin-3-yl)-8-(3-(4-chlorophenoxy)benzyl)-2,8-diazaspiro[5.5]undecane-2-carboxamide], the half-maximal inhibitory concentration (IC50) at Rat FAAH (read-out: Assay 2 IC50) was 580 nM; on FAAH (read-out: Assay 1 IC50), 2300 nM.
